Data: PMC3485666 (British Journal of Pharmacology, 2012)

Assays:
S1P1 receptors = conditions: ref Piali et al., 2011; cited from earlier work
human S1P1 receptors = human S1P1 receptors (Homo sapiens, UniProt P21453); test: GTPγ[35S] binding assay, human S1P1; assay type: biochemical
human S1P2 receptors = human S1P2 receptors (Homo sapiens, UniProt O95136); test: GTPγ[35S] binding assay, human S1P2; assay type: biochemical
human S1P3 receptors = human S1P3 receptors (Homo sapiens, UniProt Q99500); test: GTPγ[35S] binding assay, human S1P3; assay type: biochemical
Chain of human S1P3 receptors (Q99500 whole entry): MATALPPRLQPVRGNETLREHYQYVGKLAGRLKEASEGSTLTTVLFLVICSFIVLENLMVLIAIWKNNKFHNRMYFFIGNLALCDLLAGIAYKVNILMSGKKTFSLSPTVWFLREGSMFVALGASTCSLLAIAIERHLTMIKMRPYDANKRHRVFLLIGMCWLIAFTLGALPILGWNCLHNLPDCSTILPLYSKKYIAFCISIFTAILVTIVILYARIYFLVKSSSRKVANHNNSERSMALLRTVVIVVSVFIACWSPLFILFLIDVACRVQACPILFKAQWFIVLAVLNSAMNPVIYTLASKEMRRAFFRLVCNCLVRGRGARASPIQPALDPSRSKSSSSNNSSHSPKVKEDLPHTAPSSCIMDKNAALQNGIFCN

human S1P4 receptors = biological target: T1, human S1P4 receptors (Homo sapiens, UniProt O95977); test: GTPγ[35S] binding assay, human S1P4; assay type: biochemical; conditions: read-out: %Emax (percentage of maximum stimulation)
T1 sequence (O95977 1-384): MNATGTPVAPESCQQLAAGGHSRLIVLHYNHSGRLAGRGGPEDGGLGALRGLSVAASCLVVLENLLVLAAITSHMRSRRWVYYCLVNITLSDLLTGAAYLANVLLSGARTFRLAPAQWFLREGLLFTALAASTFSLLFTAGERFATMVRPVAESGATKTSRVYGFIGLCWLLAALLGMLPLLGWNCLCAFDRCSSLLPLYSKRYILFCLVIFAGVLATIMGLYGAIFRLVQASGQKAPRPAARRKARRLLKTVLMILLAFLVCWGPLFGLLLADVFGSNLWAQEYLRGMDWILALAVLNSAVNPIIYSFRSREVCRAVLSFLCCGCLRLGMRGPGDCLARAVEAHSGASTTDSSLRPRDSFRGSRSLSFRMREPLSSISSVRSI

human S1P5 receptors = human S1P5 receptors (Homo sapiens, UniProt Q9H228); test: GTPγ[35S] binding assay, human S1P5; assay type: biochemical; conditions: read-out: %Emax (percentage of maximum stimulation), S1P5
Chain of human S1P5 receptors (Q9H228 whole entry): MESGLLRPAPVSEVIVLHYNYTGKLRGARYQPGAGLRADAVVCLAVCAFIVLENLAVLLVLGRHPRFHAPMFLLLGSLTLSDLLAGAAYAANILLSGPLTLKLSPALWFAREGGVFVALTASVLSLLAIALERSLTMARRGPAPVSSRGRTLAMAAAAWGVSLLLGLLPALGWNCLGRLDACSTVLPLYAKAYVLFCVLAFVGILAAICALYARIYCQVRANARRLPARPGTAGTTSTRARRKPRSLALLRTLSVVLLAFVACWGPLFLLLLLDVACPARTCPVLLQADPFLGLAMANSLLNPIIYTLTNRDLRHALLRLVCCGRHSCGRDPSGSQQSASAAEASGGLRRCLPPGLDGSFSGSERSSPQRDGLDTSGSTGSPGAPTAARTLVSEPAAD

[1] = biological target: myc-tagged human S1P1 receptors (Homo sapiens, UniProt P21453); test: Agonist-mediated internalization of S1P1 receptors in CHO cells by flow cytometry; assay type: cell-based; conditions: for Internalization of S1P1 receptors: 1 h incubation; for S1P1 receptors localized intracellularly: 1 h incubation followed by 3 h without compound
Chain of myc-tagged human S1P1 receptors (P21453 whole entry): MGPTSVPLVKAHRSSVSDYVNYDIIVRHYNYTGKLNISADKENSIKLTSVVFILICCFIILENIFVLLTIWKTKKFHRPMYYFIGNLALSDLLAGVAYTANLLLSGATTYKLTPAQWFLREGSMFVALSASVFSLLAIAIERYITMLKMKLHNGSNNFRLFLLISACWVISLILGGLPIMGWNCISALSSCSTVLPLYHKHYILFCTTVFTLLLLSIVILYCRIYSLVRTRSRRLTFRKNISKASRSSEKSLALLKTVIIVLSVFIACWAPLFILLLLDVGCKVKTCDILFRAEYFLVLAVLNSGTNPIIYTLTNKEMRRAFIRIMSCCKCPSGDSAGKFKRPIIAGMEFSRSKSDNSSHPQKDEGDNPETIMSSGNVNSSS

[2] = test system: experimental autoimmune encephalomyelitis (EAE); test: Chronic EAE in DA rats, therapeutic dosing; assay type: in vivo; conditions: DA rat, days 11–34
[3] = test system: peripheral absolute lymphocyte count (ALC); test: Phase I multiple-dose study: absolute lymphocyte count; assay type: in vivo, human; conditions: for Difference in mean %Emax of ALC, BAF312 versus placebo: 28 days, ANCOVA; for Average time to reach the lower limit of the normal ALC range after stopping dosing at steady state: predicted by pharmacokinetic/pharmacodynamic model
[4] = test system: leukocyte subsets in whole blood; test: Phase I multiple-dose study: leukocyte subsets by flow cytometry; assay type: in vivo, human; conditions: 10 mg
heart rate = test: Phase I multiple-dose study: heart rate (Holter monitoring); assay type: in vivo, human; conditions: for Decrease in mean heart rate Emax0-24 versus placebo: day 1; for Mean heart rate reduction from time-matched day −1: 2 h post dose of day 1
healthy subjects = test: Phase I multiple-dose study: safety and tolerability; assay type: in vivo, human
clinical = conditions: both, human, in vivo, Complete wash-out (five effective half-lives) after treatment discontinuation
[5] = Phase I multiple-dose study: plasma pharmacokinetics; conditions: for AUCτ / concentration at 28 day / half-life at 28 day: geometric mean [%CV]; for Cmax at 28 day / Tmax / Tmax at 28 day / concentration at 28 day / half-life at 28 day / Cmax / half-life: both, human, plasma, oral; for half-life at 28 day: based on drug accumulation at steady-state
[6] = biological target: GIRK channels in human atrial myocytes (Homo sapiens, UniProt P21453); test: Electrophysiological recordings of GIRK current in human atrial myocytes; assay type: cell-based; conditions: S1P versus BAF312
Chain of GIRK channels in human atrial myocytes (P21453 whole entry): as above
Chain of GIRK channels in human atrial myocytes (P48549 whole entry partner): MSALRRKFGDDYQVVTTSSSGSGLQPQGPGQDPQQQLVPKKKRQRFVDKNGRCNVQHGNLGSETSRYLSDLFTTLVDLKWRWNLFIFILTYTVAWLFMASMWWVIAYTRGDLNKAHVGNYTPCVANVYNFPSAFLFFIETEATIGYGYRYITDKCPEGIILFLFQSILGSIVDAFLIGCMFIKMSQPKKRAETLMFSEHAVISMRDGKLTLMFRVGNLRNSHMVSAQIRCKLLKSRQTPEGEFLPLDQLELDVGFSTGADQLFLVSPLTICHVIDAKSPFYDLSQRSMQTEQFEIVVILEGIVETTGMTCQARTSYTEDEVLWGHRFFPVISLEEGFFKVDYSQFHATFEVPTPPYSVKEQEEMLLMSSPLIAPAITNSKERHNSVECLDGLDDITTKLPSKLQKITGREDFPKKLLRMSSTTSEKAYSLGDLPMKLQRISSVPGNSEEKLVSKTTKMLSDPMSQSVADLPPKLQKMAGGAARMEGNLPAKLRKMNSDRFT
Chain of GIRK channels in human atrial myocytes (P48544 whole entry partner): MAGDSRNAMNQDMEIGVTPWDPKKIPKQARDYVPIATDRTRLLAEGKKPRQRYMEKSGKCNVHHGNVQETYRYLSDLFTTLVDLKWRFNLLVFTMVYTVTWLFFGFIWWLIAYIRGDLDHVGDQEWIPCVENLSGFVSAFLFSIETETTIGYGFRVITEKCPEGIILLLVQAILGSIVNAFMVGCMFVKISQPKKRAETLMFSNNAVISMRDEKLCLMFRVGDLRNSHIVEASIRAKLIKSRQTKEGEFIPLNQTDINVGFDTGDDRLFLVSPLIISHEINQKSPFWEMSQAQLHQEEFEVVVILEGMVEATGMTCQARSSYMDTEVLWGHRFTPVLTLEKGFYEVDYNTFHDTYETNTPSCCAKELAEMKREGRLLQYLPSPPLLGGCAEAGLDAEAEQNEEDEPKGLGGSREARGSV

Chain of human S1P2 receptors (O95136 whole entry): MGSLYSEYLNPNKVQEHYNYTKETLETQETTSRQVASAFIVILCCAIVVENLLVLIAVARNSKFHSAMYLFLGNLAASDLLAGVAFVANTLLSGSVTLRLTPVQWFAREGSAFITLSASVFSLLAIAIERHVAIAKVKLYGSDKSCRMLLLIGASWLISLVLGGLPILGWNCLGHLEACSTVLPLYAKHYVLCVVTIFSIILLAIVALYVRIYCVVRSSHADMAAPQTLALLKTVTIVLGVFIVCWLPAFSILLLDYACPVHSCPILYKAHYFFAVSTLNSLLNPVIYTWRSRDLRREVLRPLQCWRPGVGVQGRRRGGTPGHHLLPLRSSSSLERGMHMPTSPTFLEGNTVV
Chain of human S1P1 receptors (P21453 whole entry): as the sequence (P21453 whole entry) above

For `CCC/N=C1\S/C(=C\c2ccc(OC[C@H](O)CO)c(Cl)c2)C(=O)N1c1ccccc1C` [ponesimod], the “Selectivity of S1P1 versus S1P3 (full agonist)” value (S1P1 receptors) is given as 20 fold and the “Selectivity of S1P1 versus S1P5 (partial agonist)” value (S1P1 receptors) is given as 10 fold.
For `CCc1cc(/C(C)=N/OCc2ccc(C3CCCCC3)c(C(F)(F)F)c2)ccc1CN1CC(C(=O)O)C1` [BAF312, 1-(4-{1-[(E)-4-cyclohexyl-3-trifluoromethylbenzyloxyimino]-ethyl}-2-ethylbenzyl)-azetidine-3-carboxylic acid], the EC50 (human S1P1 receptors) was 0.39 ± 0.07 nM, the EC50 (human S1P2 receptors) was greater than 10000 nM and the EC50 (human S1P3 receptors) was greater than 1000 nM. For the same compound, the Emax (human S1P4 receptors) was 90 ± 9%, the Emax (human S1P5 receptors) was roughly 100% and the “Internalization of S1P1 receptors” value ([1]; 10 nM, 2 experiments) was 86 ± 4%. For the same compound, the “Internalization of S1P1 receptors” value ([1]; 100 nM, 2 experiments) was 99 ± 3%, the “S1P1 receptors localized intracellularly” value ([1]; 1 µM, mean ± SD) was 87 ± 0.5% and the “Internalization of S1P1 receptors” value ([1]; 1 µM, mean ± SD) was 91 ± 4%. For the same compound, the “Surface expression of S1P1 receptors” value ([1]; incubated for up to 12 h without compound (data not shown)) was “remained low”, the “Disease scores (AUC from days 12 to 34) versus vehicle” value ([2]; 0.03 mg·kg^−1 oral once daily) was “borderline effect” and the “Disease scores (AUC from days 12 to 34) versus vehicle” value ([2]; 0.3 mg·kg^−1 oral once daily) was “significant reduction”. For the same compound, the “Disease scores (AUC from days 12 to 34) versus vehicle” value ([2]; 3 mg·kg^−1 oral once daily) was “significant reduction”, the “Difference in mean %Emax of ALC, BAF312 versus placebo” value (from here on “Difference in mean %Emax of ALC”) ([3]; 0.3 mg once daily, 90% CI in parentheses) was 32.8% and the “Difference in mean %Emax of ALC” value ([3]; 1 mg once daily) was 61.6%. For the same compound, the “Average time to reach the lower limit of the normal ALC range after stopping dosing at steady state” value ([3]; 1 mg) was “approximately 24 h”, the “Difference in mean %Emax of ALC” value ([3]; 2.5 mg once daily) was 56.7% and the “Difference in mean %Emax of ALC” value ([3]; 10 mg once daily) was 74.6%. The “Average time to reach the lower limit of the normal ALC range after stopping dosing at steady state” value ([3]; 10 mg) was roughly 123 h, the “Difference in mean %Emax of ALC” value ([3]; 20 mg once daily) was 76.1% and the “Time of maximal ALC reduction post dose” value ([3]; day 1, healthy subjects) was 4 to 6 h. The “Study day by which ALC returned to the normal range” value ([3]; treatment stopped on day 28, dose groups 0.3–10 mg) was no more than 35 days, the “Effect on B and T cell counts” value ([4]; baseline to end of treatment) was “strong reduction in cell counts” and the “Effect on monocyte counts” value ([4]; baseline to end of treatment) was “Little or no effect”. For the same compound, the “Leukocyte subset cell counts after discontinuation” value ([4]; three weeks after discontinuation (data not shown)) was “returned to baseline levels”, the “Decrease in mean heart rate Emax0-24 versus placebo” value (heart rate; 0.3 mg, 90% CI in brackets, not significant) was −0.92 bpm and the “Decrease in mean heart rate Emax0-24 versus placebo” value (heart rate; 1 mg) was −6.41 bpm. The “Decrease in mean heart rate Emax0-24 versus placebo” value (heart rate; 2.5 mg) was −5.44 bpm, the “Mean heart rate reduction from time-matched day −1” value (heart rate; 10 mg) was “approximately 24 ± 6 bpm” and the “Decrease in mean heart rate Emax0-24 versus placebo” value (heart rate; 10 mg) was −13.88 bpm. The “Mean heart rate reduction from time-matched day −1” value (heart rate; 20 mg) was roughly 29 ± 10 bpm, the “Subjects with asymptomatic second degree atrioventricular (AV) block” value (heart rate; active groups, each on day 1) was “three” and the “Time of maximum decrease in mean ventricular heart rate post dose” value (heart rate; day 1, all (0.3–20 mg) doses) was roughly 2 h. The “Subjects experiencing AEs” value (healthy subjects; 0.3 mg dose group) was “three”, the “Subjects experiencing AEs” value (healthy subjects; 1 mg dose group) was “three” and the “Subjects experiencing AEs” value (healthy subjects; 2.5 mg dose group) was “four”. For the same compound, the “Subjects experiencing AEs” value (healthy subjects; 10 mg dose group) was “six”, the “Subjects experiencing AEs” value (healthy subjects; 20 mg dose group) was “six” and the “Macular oedema by ocular coherence tomography” value (healthy subjects; 0.3–20 mg once daily, 28 days) was “no signs of macular oedema”. For the same compound, the Tolerability (healthy subjects; 0.3–20 mg once daily, 28 days, healthy subjects) was “well tolerated”, the “Elevations in alanine aminotransferase level” value (healthy subjects; by dose group) was “occurred most frequently in subjects in the BAF312 20 mg dose group” and the “Pulmonary function tests versus placebo” value (healthy subjects; not related to dose and day (data not shown)) was “mild to moderate, statistically significant decreases”. For the same compound, the “Visual acuity scores over treatment days” value (healthy subjects; regardless of the dose) was “no notable changes”, the “Serious AEs” value (healthy subjects; whole trial) was “no serious AEs” and the half-life (clinical) was 151 h. The “AUC0–24 h” value ([5]; Day 1, 0.3 mg·day^−1) was 36.2 [10] h^*ng·mL^−1, the “AUC0–24 h” value ([5]; Day 1, 1 mg·day^−1) was 136 [8] h^*ng·mL^−1 and the “AUC0–24 h” value ([5]; Day 1, 2.5 mg·day^−1) was 293 [85] h^*ng·mL^−1. The “AUC0–24 h” value ([5]; Day 1, 10 mg·day^−1) was 1370 [11] h^*ng·mL^−1, the “AUC0–24 h” value ([5]; Day 1, 20 mg·day^−1) was 2740 [14] h^*ng·mL^−1 and the AUCτ ([5]; Day 28, 0.3 mg·day^−1) was 97.9 [19] h^*ng·mL^−1. For the same compound, the AUCτ ([5]; Day 28, 1 mg·day^−1) was 282 [16] h^*ng·mL^−1, the AUCτ ([5]; Day 28, 2.5 mg·day^−1) was 692 [45] h^*ng·mL^−1 and the AUCτ ([5]; Day 28, 10 mg·day^−1) was 2580 [24] h^*ng·mL^−1. For the same compound, the “Cmin,ss” value ([5]; Day 28, 20 mg·day^−1, arithmetic mean (SD)) was 166 (88.0) ^D ng·mL^−1, the AUCτ ([5]; Day 28, 20 mg·day^−1) was 6370 [23] h^*ng·mL^−1 and the Cmax at 28 day ([5]; 0.3 mg·day^−1) was 5.31 ng/mL. The Tmax ([5]; 0.3 mg·day^−1) was 3 h, the Tmax at 28 day ([5]; 0.3 mg·day^−1) was 3.5 h and the concentration at 28 day ([5]; 0.3 mg·day^−1, Cavg, ss, Day 28, 0.3 mg·day^−1) was 4.08 ng/mL. For the same compound, the concentration at 28 day ([5]; 0.3 mg·day^−1, Cmin,ss, Day 28, 0.3 mg·day^−1) was 2.83 ng/mL, the half-life at 28 day ([5]; 0.3 mg·day^−1, Effective T1/2, Day 28, 0.3 mg·day^−1) was 36.2 h and the Cmax ([5]; 1 mg·day^−1) was 8.01 ng/mL. The Cmax at 28 day ([5]; 1 mg·day^−1) was 14.9 ng/mL, the Tmax ([5]; 1 mg·day^−1) was 4.5 h and the Tmax at 28 day ([5]; 1 mg·day^−1) was 3 h. The concentration at 28 day ([5]; 1 mg·day^−1, Cavg, ss, Day 28, 1 mg·day^−1) was 11.7 ng/mL, the concentration at 28 day ([5]; 1 mg·day^−1, Cmin,ss, Day 28, 1 mg·day^−1) was 7.74 ng/mL and the half-life at 28 day ([5]; 1 mg·day^−1, Effective T1/2, Day 28, 1 mg·day^−1) was 25.2 h. It also gave a Cmax ([5]; 2.5 mg·day^−1) of 17.4 ng/mL, a Cmax at 28 day ([5]; 2.5 mg·day^−1) of 38.3 ng/mL and a Tmax ([5]; 2.5 mg·day^−1) of 3 h. The Tmax at 28 day ([5]; 2.5 mg·day^−1) was 4 h, the concentration at 28 day ([5]; 2.5 mg·day^−1, Cavg, ss, Day 28, 2.5 mg·day^−1) was 28.8 ng/mL and the concentration at 28 day ([5]; 2.5 mg·day^−1, Cmin,ss, Day 28, 2.5 mg·day^−1) was 15.2 ng/mL. For the same compound, the Cmax ([5]; 10 mg·day^−1) was 84.1 ng/mL, the Cmax at 28 day ([5]; 10 mg·day^−1) was 147 ng/mL and the Tmax ([5]; 10 mg·day^−1) was 3 h. For the same compound, the Tmax at 28 day ([5]; 10 mg·day^−1) was 3 h, the concentration at 28 day ([5]; 10 mg·day^−1, Cavg, ss, Day 28, 10 mg·day^−1) was 107 ng/mL and the concentration at 28 day ([5]; 10 mg·day^−1, Cmin,ss, Day 28, 10 mg·day^−1) was 70.6 ng/mL. It also gave a half-life at 28 day ([5]; 10 mg·day^−1, Effective T1/2, Day 28, 10 mg·day^−1) of 21.9 h, a Cmax ([5]; 20 mg·day^−1) of 162 ng/mL and a Cmax at 28 day ([5]; 20 mg·day^−1) of 359 ng/mL. It also gave a Tmax ([5]; 20 mg·day^−1) of 4 h, a Tmax at 28 day ([5]; 20 mg·day^−1) of 3 h and a concentration at 28 day ([5]; 20 mg·day^−1, Cavg, ss, Day 28, 20 mg·day^−1) of 265 ng/mL. For the same compound, the half-life at 28 day ([5]; 20 mg·day^−1, Effective T1/2, Day 28, 20 mg·day^−1) was 28.8 h, the half-life ([5]; Effective elimination half-life based on drug accumulation at steady state, range over dose groups) was 22 to 38 h and the half-life ([5]; Effective elimination half-life, mean, mean over dose groups) was 30 h. The “Dose proportionality of pharmacokinetics” value ([5]; dose range of 0.3 to 20 mg) was “increase proportionally with the dose” and the “Time to steady-state concentrations” value ([5]; multiple once-daily administration) was “approximately 6 days”.
For `CCCCCCCCCCCCC/C=C/[C@@H](O)[C@@H](N)COP(=O)(O)O` [S1P, sphingosine 1-phosphate, reference compound], the “S1P1 receptors localized intracellularly” value ([1]; 1 µM, mean ± SD) was 9 ± 9%, the “Internalization of S1P1 receptors” value ([1]; 1 µM, mean ± SD) was 48 ± 12% and the “Potency in activating GIRK current relative to BAF312” value [6] was “approximately 8 times”.
